# Measured values taken from PMC9424906 (Frontiers in Pharmacology, 2022).
# Entries after “also recorded” stand apart in the source; their conditions may differ. Like-named read-outs stand apart in the source and are kept apart here.
# Experiments:
# [1] = system: SARS-CoV-2 (USA_WA1/2020); assay: SARS-CoV-2 cytopathic effect (CPE) assay in Vero E6 cells; type: cell-based; conditions: Severe acute respiratory syndrome coronavirus 2, Vero C1008; Vero E6 cells, MOI 0.002, 72 h, n = 2; read-out: EC50, inhibition of SARS-CoV-2 CPE
# in vitro [2] = type: in vitro ADME; conditions: PAMPA, pH 7.4
# Protocol: Stirring double-sink PAMPA (patented by Pion Inc.) was employed to determine permeability. Assay was performed as described previously ([Sun et al., 2017]). The PAMPA lipid membrane, which consisted of an artificial membrane of a proprietary lipid mixture and dodecane (Pion Inc.), was optimized to predict cell membrane permeability. This artificial membrane was immobilized on a plastic matrix of a 96-well “donor” filter plate placed below a 96-well “acceptor” plate. Both “donor” and “acceptor” wells were buffered to pH 7.4. […] Permeability calculations were performed using Pion Inc. software and were expressed in the unit of 10^–6 cm/s.
# in vitro [3] = type: in vitro ADME, human; conditions: Sprague-Dawley (rat), CD-1 (mouse), Beagle (dog), monkey
# Protocol: Plasma protein binding experiments were carried out in mixed-gender human plasma, male Sprague-Dawley rat plasma, male CD-1 plasma, male Beagle dog plasma, and male Cynomolgus monkey plasma (BioIVT) using a Pierce Rapid Equilibration Dialysis (RED) device. […] Blank phosphate-buffered saline (PBS) (500 μL) was added to each corresponding receiver chamber. After 4 h of incubation (with shaking at 37°C), both sides were aliquoted, and matrix was normalized. Samples were centrifuged at 1000 g for 10 min after adding two volumes of ACN with IS. Supernatants were diluted 1:1 with water and analyzed with LC-MS/MS.
# Plasma Protein binding was calculated as follows:
# % Bound = [(PARR in Donor–PARR in Receiver)/(PARR in Donor)] × 100.
# PARR = peak area response ratio to internal standard, including applicable dilution factors.
# OAT1 = conditions: cited from earlier work
# OATP1B3 = conditions: cited from earlier work
# OCT2 = conditions: cited from earlier work
# MDR1 = conditions: MDCK-MDR1
# CNT2 = target: T1, CNT2 (Homo sapiens, UniProt O43868); assay: Nucleoside transporter uptake, CNT2-transfected MDCK cells; type: in vitro ADME; conditions: for Uptake compared to control cells: CNT2-transfected cells
# T1 construct: expressed in transfected cells; host or cells: MDCK-II
# T1 sequence (O43868 1-658): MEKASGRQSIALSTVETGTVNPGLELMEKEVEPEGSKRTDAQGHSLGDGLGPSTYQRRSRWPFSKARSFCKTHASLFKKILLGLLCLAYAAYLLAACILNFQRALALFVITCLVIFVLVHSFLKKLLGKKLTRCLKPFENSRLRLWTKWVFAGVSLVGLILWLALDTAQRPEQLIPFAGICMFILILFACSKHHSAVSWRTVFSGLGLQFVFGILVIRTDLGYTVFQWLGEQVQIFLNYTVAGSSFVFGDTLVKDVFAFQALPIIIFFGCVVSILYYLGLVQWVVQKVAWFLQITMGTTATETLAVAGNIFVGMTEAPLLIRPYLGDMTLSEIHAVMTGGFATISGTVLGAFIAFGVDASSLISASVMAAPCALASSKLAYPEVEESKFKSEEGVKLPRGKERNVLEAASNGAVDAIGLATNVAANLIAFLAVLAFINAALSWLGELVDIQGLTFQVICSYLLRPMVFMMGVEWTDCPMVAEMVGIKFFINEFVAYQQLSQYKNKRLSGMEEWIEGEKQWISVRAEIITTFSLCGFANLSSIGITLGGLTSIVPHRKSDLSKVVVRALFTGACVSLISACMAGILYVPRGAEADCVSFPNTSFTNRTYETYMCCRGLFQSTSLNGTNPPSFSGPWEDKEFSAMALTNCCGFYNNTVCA
# Text: Each condition was run in triplicate.
# [4] = Pharmacokinetics in Sprague Dawley rats; type: in vivo; conditions: male, rat; for Vd / clearance / AUC(0-inf) / Cmax / Tmax / bioavailability: in vivo; for Vd / clearance: iv; for AUC(0-inf) / Cmax / Tmax / bioavailability / half-life: po; for half-life: plasma, Rat
# Protocol: Adult male C57BL/6 mice and Sprague Dawley rats were purchased from Charles River Laboratory (Wilmington, MA). PK studies for mice and rats were conducted at NIH animal facility (Bethesda, MD). In-life dog and monkey PK studies were conducted at Absorption System (San Diego, CA) and Frontage Labs (Concord, OH), respectively. Dogs and monkeys were fasted overnight prior to dose administrations. All experimental procedures were reviewed and approved by the Animal Care and Use Committee (ACUC) of the NIH Division of Veterinary Resources (DVR) or CRO labs for in-life studies.
# Male Sprague–Dawley rats (n = 3 or 4 per treatment group, ∼ 343–375 g) were dosed in IV and PO dosing groups: 1 and 5 mg/kg IV, and 10, 30 and 100 mg/kg PO, respectively. Double cannulated rats (one catheter for IV dosing and another one for sampling) were used. Plasma samples were collected from jugular vein over 24 h. In bile duct cannulated (BDC) rat group, a single IV dose of 2 mg/kg was administered to three rats. Rat urine and bile samples were collected for the pre-dose, 0–4 h, 4–8 h, and 8–24 h time periods for BDC rats.
# Blood samples from all groups and species were collected in K2EDTA tubes and stored on wet ice pending processing. Blood was centrifuged at 2200 g at 4°C for 10 min to isolate plasma. All samples were stored at -80°C until analysis.
# Phoenix WinNonlin, version 8.1 (Certara, St. Louis, MO), was used to perform PK analysis with the non-compartmental approach (Models 200 and 201 for PO and IV datasets). The area under the plasma concentration vs. time curve (AUC) was calculated using the linear trapezoidal method. The terminal rate constant (λ) was obtained from the slope of at least three data points of the apparent terminal phase of the log-linear plasma concentration vs. time curve when available. AUC0–∞ was estimated as the sum of the AUC0–t (where t is the time of the last measurable concentration) and Ct/λ. The apparent terminal half-life (t½) was calculated as 0.693/λ. Bioavailability (F) was calculated using ratios of dose normalized AUC (AUC/Dose) obtained from PO and IV PK studies.
compound,measurement,setting,value
N#C[C@@]1(c2ccc3c(N)ncnn23)O[C@H](CO)[C@@H](O)[C@H]1O [GS-441524],EC50,[1],1860 nM
same,Papp at 30 min,in vitro [2],< 1 ×10⁻⁶ cm/s
same,"fraction unbound at 4 h, 10 µM","in vitro [3]; both (human, mixed-gender), male (animals), human",0.62 to 0.78
same,"fraction unbound at 4 h, 10 µM","in vitro [3]; male, plasma",0.62 to 0.64
same,Substrate of OAT1,OAT1,not a substrate
same,Substrate of OATP1B3,OATP1B3,not a substrate
same,Substrate of OCT2,OCT2,not a substrate
same,Substrate of MDR1,MDR1,substrate
same,Substrate of CNT2,CNT2,not a substrate; also recorded: unlikely to be a substrate
same,Uptake compared to control cells,CNT2; 10 µM,higher than 2 fold
same,Uptake compared to control cells,CNT2; 30 and 100 µM,less than 2 fold
same,Vd,[4]; 1 mg/kg,2.6 L/kg
same,clearance,[4]; 1 mg/kg,31 mL/min/kg
same,Vd,[4]; 5 mg/kg,2.2 ± 0.3 L/kg
same,clearance,[4]; 5 mg/kg,25 ± 1.6 mL/min/kg
same,AUC(0-inf),[4]; 10 mg/kg,2170 ng·h/mL
same,Cmax,[4]; 10 mg/kg,193 ± 57 ng/mL
same,Tmax,[4]; 10 mg/kg,3.8 ± 2.4 h
same,bioavailability,[4]; 10 mg/kg,33 ± 9.8%
same,AUC(0-inf),[4]; 30 mg/kg,4220 ng·h/mL
same,Cmax,[4]; 30 mg/kg,326 ± 77 ng/mL
same,Tmax,[4]; 30 mg/kg,3.8 ± 2.4 h
same,bioavailability,[4]; 30 mg/kg,21 ± 3.8%
same,AUC(0-inf),[4]; 100 mg/kg,9560 ng·h/mL
same,Cmax,[4]; 100 mg/kg,825 ± 91 ng/mL
same,Tmax,[4]; 100 mg/kg,2.3 ± 1.3 h
same,bioavailability,[4]; 100 mg/kg,15 ± 3.2%
same,half-life,"[4]; 10 mg/kg, PO 10 mg/kg, read-out: t1/2 (converted)",3.4 ± 0.2 h
same,half-life,"[4]; 30 mg/kg, PO 30 mg/kg, read-out: t1/2 (converted)",3.4 ± 0.2 h
same,half-life,"[4]; 100 mg/kg, PO 100 mg/kg, read-out: t1/2 (converted)",4.2 ± 1.8 h
same,half-life,"[4]; 100 mg/kg, PO 10, 30 and 100 mg/kg, read-out: Half-life (t1/2)",3.4 to 4.2 h
